Measured values published in ChEMBL document CHEMBL3877309, “Determination of binding modes and binding constants for the complexes of 6H-pyrido[4,3-b]carbazole derivatives with DNA” (Bioorg Med Chem, 2017).
Calls of active or inactive are those of the source. The calls are words filed in the database; no cut-off is given here.

Experiments:
Salmonidae = experiment: Binding affinity to salmon sperm DNA assessed as DNA intercalation at 0.04 mole fraction after 5 mins by UV-Vis spectroscopic method
[1] = Binding affinity to synthetic biotin-labeled 30-mer AT-rich duplex DNA in pH 7.4 EDTA buffer solution assessed as ratio of association rate constant to dissociation rate constant in presence of 0.05 M NaCl at 25 degC by QCM sensogram analysis
[2] = Binding affinity to synthetic biotin-labeled 30-mer AT-rich duplex DNA in pH 7.4 EDTA buffer solution assessed as dissociation rate constant in presence of 0.05 M NaCl at 25 degC by QCM sensogram analysis
[3] = Binding affinity to synthetic biotin-labeled 30-mer GC-rich duplex DNA in pH 7.4 EDTA buffer solution assessed as dissociation rate constant in presence of 0.05 M NaCl at 25 degC by QCM sensogram analysis
[4] = Binding affinity to synthetic biotin-labeled 30-mer AT-rich duplex DNA in pH 7.4 EDTA buffer solution assessed as association rate constant in presence of 0.05 M NaCl at 25 degC by QCM sensogram analysis
[5] = Binding affinity to synthetic biotin-labeled 30-mer GC-rich duplex DNA in pH 7.4 EDTA buffer solution assessed as ratio of association rate constant to dissociation rate constant in presence of 0.05 M NaCl at 25 degC by QCM sensogram analysis
[6] = Binding affinity to synthetic biotin-labeled 30-mer GC-rich duplex DNA in pH 7.4 EDTA buffer solution in presence of 0.05 M NaCl at 25 degC by QCM sensogram analysis
[7] = Binding affinity to synthetic biotin-labeled 30-mer AT-rich duplex DNA in pH 7.4 EDTA buffer solution in presence of 0.05 M NaCl at 25 degC by QCM sensogram analysis
[8] = Binding affinity to synthetic biotin-labeled 30-mer GC-rich duplex DNA in pH 7.4 EDTA buffer solution assessed as association rate constant in presence of 0.05 M NaCl at 25 degC by QCM sensogram analysis
[9] = Cytotoxicity against mouse NIH/3T3 cells assessed as reduction in cell viability after 72 hrs by MTT assay; format: toxicity, cell-based, NIH3T3
[10] = Cytotoxicity against mouse Sarcoma 180 cells assessed as reduction in cell viability after 72 hrs by MTT assay; format: functional, cell-based; settings: Sarcoma-180, 72 h
[11] = Cytotoxicity against human HeLaS3 cells assessed as reduction in cell viability after 72 hrs by MTT assay; format: functional, cell-based; settings: HeLa S3, 72 h
[12] = Selectivity index, ratio of IC50 for mouse NIH/3T3 cells to IC50 for mouse Sarcoma 180 cells; format: functional
HeLa S3 = experiment: Selectivity ratio of IC50 for human HeLaS3 cells to IC50 for mouse Sarcoma 180 cells; format: functional
[13] = Binding affinity to synthetic biotin-labeled 30-mer GC-rich duplex DNA in pH 7.8 Tris-Hcl buffer solution assessed as association rate constant in presence of 0.1 M NaCl at 25 degC by QCM sensogram analysis
[14] = Binding affinity to synthetic biotin-labeled 30-mer GC-rich duplex DNA in pH 7.8 Tris-Hcl buffer solution assessed as dissociation rate constant in presence of 0.1 M NaCl at 25 degC by QCM sensogram analysis
[15] = Binding affinity to synthetic biotin-labeled 30-mer GC-rich duplex DNA in pH 7.8 Tris-Hcl buffer solution assessed as ratio of association rate constant to dissociation rate constant in presence of 0.1 M NaCl at 25 degC by QCM sensogram analysis
[16] = Binding affinity to synthetic biotin-labeled 30-mer AT-rich duplex DNA in pH 7.8 Tris-Hcl buffer solution assessed as ratio of association rate constant to dissociation rate constant in presence of 0.1 M NaCl at 25 degC by QCM sensogram analysis
[17] = Binding affinity to synthetic biotin-labeled 30-mer AT-rich duplex DNA in pH 7.8 Tris-Hcl buffer solution assessed as dissociation rate constant in presence of 0.1 M NaCl at 25 degC by QCM sensogram analysis
[18] = Binding affinity to synthetic biotin-labeled 30-mer AT-rich duplex DNA in pH 7.8 Tris-Hcl buffer solution assessed as association rate constant in presence of 0.1 M NaCl at 25 degC by QCM sensogram analysis

For `Cc1c2cc[n+](C)cc2c(C)c2c1[nH]c1ccc(O)cc12`, the Activity (Salmonidae) was “Active”, the Ratio [1] was 0.97 ×10⁶ /M and the K [2] was 8.05 ×10⁻³ /s. The K [3] was 2.01 ×10⁻³ /s, the K [4] was 0.78 ×10⁴ /M/s and the Ratio [5] was 6.37 ×10⁶ /M. For the same compound, the Ka [6] was 47.2 ×10⁵ /M, the Ka [7] was 35.1 ×10⁵ /M and the K [8] was 1.28 ×10⁴ /M/s.

For `Cc1c2c[n+](C)ccc2c(C(=O)NCCOCCN)c2[nH]c3ccccc3c12`, the IC50 at 72 h [9] was 60000 nM, the Activity (Salmonidae) was “Active” and the IC50 [10] was 48000 nM. For the same compound, the IC50 [11] was > 100000 nM.

With `Cc1c2c[n+](C)ccc2c(C(=O)NCCCCCN)c2[nH]c3ccccc3c12` the IC50 at 72 h [9] was 32000 nM, the Activity (Salmonidae) was “Active” and the IC50 [10] was 21000 nM. For the same compound, the IC50 [11] was > 100000 nM.

For `CNC(=O)NCCNC(=O)c1c2ccncc2c(C)c2c1[nH]c1ccccc12`, the IC50 at 72 h [9] was 11000 nM, the Activity (Salmonidae) was “Active” and the IC50 [10] was 15000 nM. For the same compound, the IC50 [11] was 15000 nM.

For `Cc1c2cc[n+](CCOCCN)cc2c(C)c2c1[nH]c1ccccc12.[Cl-]`, the IC50 at 72 h [9] was 8800 nM, the “Ratio IC50” value [12] was 3 - 24 and the Activity (Salmonidae) was “Active”. The IC50 [10] was 800 nM and the “Ratio IC50” value (HeLa S3) was 13 - 37.

With `Cc1c2c[n+](C)ccc2c(C(=O)NCCCN)c2[nH]c3ccccc3c12` the IC50 at 72 h [9] was 42000 nM, the Activity (Salmonidae) was “Active” and the IC50 [10] was 26000 nM. For the same compound, the IC50 [11] was > 26000 nM.

With `CNC(=O)NCCNC(=O)c1c2cc[n+](C)cc2c(C)c2c1[nH]c1ccc(OC)cc12` the Activity (Salmonidae) was “Active” and the IC50 [11] was 32000 nM.

With `COC(=O)c1c2cc[n+](CCN)cc2c(C)c2c1[nH]c1ccccc12.[Cl-]` the IC50 at 72 h [9] was 780 nM, the “Ratio IC50” value [12] was 3 - 24 and the Activity (Salmonidae) was “Active”. The IC50 [10] was 520 nM and the “Ratio IC50” value (HeLa S3) was 13 - 37.

For `Cc1c2c[n+](CCCCCN)ccc2c(C)c2c1c1cc(O)ccc1n2C.[Cl-]`, the “Ratio IC50” value [12] was 3 - 24, the Activity (Salmonidae) was “Active” and the IC50 [10] was 1400 nM. For the same compound, the “Ratio IC50” value (HeLa S3) was 13 - 37.

In the case of `CNC(=O)NCCOCC[n+]1ccc2c(C)c3c(c(C)c2c1)c1cc(O)ccc1n3C`, the IC50 at 72 h [9] is reported as 1600 nM, the Activity (Salmonidae) is reported as “Active” and the IC50 [10] is reported as 2700 nM.

For `CC[n+]1c(-c2ccccc2)c2cc(N)ccc2c2ccc(N)cc21`, the K [13] was 1.2 ×10⁴ /M/s, the K [14] was 210 ×10⁻³ /s and the Ratio [15] was 0.056 ×10⁶ /M. It also gave a Ratio [16] of 0.011 ×10⁶ /M, a K [17] of 150 ×10⁻³ /s and a K [18] of 0.17 ×10⁴ /M/s.

With `COC(=O)c1c2cc[n+](CCNCCN)cc2c(C)c2c1[nH]c1ccccc12` the IC50 at 72 h [9] was 1870 nM, the Activity (Salmonidae) was “Active” and the IC50 [10] was 1200 nM.

With `Cc1c2cnccc2c(C)c2c1c1ccccc1n2C` the Activity (Salmonidae) was “Active”, the IC50 [10] was 500 nM and the IC50 [11] was 930 nM.

With `Cc1c2cc[n+](CCOCCN)cc2c(C)c2c1[nH]c1ccc(O)cc12.[Cl-]` the IC50 at 72 h [9] was 2400 nM, the “Ratio IC50” value [12] was 3 - 24 and the Activity (Salmonidae) was “Active”. The IC50 [10] was 1000 nM and the “Ratio IC50” value (HeLa S3) was 13 - 37.

For `CNC(=O)NCCOCCNC(=O)c1c2cc[n+](C)cc2c(C)c2c1[nH]c1ccccc12`, the IC50 at 72 h [9] was 18000 nM, the Activity (Salmonidae) was “Active” and the IC50 [10] was 41000 nM.

With `Cc1c2c[n+](C)ccc2c(C(=O)NCCNCCN)c2[nH]c3ccccc3c12` the IC50 at 72 h [9] was 86000 nM, the Activity (Salmonidae) was “Active” and the IC50 [10] was > 100000 nM.

In the case of `Cc1c2c[n+](C)ccc2c(C(=O)NCCN)c2[nH]c3ccccc3c12`, the IC50 at 72 h [9] is reported as 70000 nM, the Activity (Salmonidae) is reported as “Active” and the IC50 [10] is reported as 55000 nM. For the same compound, the IC50 [11] was > 100000 nM.

For `Cc1c2ccncc2c(C)c2c1[nH]c1ccccc12` [ELLIPTECINE], the IC50 at 72 h [9] was 300 nM, the Activity (Salmonidae) was “Active” and the IC50 [10] was 2000 nM. The IC50 [11] was 2100 nM.

With `COC(=O)c1c2cc[n+](CCOCCN)cc2c(C)c2c1[nH]c1ccccc12.[Cl-]` the IC50 at 72 h [9] was 1750 nM, the “Ratio IC50” value [12] was 3 - 24 and the Activity (Salmonidae) was “Active”. For the same compound, the IC50 [10] was 1120 nM and the “Ratio IC50” value (HeLa S3) was 13 - 37.

For `COC(=O)c1c2cc[n+](C)cc2c(C)c2c1[nH]c1ccccc12`, the IC50 at 72 h [9] was 1200 nM, the Activity (Salmonidae) was “Active” and the IC50 [10] was 1000 nM. It also gave an IC50 [11] of 1200 nM.
